Experiment [1] concerns the target T1, Alpha-1 adrenergic receptor (Mus musculus, UniProt P97714+P97717+P97718).
T1 sequence (P97714 whole entry): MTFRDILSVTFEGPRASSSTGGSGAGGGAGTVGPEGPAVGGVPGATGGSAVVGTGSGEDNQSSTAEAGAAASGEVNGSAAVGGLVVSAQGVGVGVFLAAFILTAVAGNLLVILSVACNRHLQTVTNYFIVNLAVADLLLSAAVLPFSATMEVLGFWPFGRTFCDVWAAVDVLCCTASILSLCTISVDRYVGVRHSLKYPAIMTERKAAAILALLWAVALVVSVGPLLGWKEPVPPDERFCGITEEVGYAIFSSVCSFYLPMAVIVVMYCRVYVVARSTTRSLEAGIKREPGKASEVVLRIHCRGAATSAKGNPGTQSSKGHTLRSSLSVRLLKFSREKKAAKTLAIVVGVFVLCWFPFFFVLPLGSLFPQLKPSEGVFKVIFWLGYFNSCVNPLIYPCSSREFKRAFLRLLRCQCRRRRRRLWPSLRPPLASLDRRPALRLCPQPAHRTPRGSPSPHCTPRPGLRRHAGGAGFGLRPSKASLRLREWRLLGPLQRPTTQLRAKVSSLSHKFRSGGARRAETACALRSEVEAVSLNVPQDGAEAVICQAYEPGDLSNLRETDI
T1 sequence (P97717 whole entry): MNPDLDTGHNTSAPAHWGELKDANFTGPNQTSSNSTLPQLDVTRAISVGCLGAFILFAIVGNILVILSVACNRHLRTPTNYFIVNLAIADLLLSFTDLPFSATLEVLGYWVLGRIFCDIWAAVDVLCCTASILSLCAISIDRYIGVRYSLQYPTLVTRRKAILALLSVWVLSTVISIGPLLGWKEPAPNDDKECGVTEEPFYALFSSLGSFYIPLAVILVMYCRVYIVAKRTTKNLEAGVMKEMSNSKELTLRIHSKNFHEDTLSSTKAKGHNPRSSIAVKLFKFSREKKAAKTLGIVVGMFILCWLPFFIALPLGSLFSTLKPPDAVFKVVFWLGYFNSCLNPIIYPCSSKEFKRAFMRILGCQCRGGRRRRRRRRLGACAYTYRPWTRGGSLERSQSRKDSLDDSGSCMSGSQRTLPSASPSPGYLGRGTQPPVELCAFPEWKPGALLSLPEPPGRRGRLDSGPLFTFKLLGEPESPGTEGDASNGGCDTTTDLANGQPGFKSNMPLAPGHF
T1 sequence (P97718 whole entry): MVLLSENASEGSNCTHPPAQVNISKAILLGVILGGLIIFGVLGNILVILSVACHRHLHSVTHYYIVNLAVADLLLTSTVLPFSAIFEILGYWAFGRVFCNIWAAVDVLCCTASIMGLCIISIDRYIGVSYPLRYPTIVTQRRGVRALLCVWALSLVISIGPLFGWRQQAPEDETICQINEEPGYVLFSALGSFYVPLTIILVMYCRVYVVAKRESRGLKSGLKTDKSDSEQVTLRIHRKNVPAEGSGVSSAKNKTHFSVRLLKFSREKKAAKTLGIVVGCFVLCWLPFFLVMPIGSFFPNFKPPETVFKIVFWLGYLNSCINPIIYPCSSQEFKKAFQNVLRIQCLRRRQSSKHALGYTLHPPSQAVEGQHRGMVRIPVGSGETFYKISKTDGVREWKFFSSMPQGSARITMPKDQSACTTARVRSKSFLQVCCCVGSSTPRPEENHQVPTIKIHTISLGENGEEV
The experiment in a line: Tested for its binding affinity against Alpha-1 adrenergic receptor; showed no appreciable affinity at concentration specified. The format is protein assay.

In experiment [2] the target is Muscarinic acetylcholine receptor. Nature of the experiment: Tested for its binding affinity against muscarinic receptor; showed no appreciable affinity at concentration specified. The format is protein assay.
Experiment [3] concerns the target Serotonin transporter (Rattus norvegicus). The experiment in a line: Compound was evaluated for inhibition of 5-HT uptake by measuring its ability to inhibit [3H]paroxetine binding to rat cortical membranes.
Experiment [4] has as its target D(2) dopamine receptor (Mus musculus, UniProt P61168). The experiment in a line: Tested for its binding affinity against Dopamine receptor D2; showed no appreciable affinity at concentration specified.
In experiment [5] the test system is Mus musculus. The experiment in a line: Effective dose required for half maximal potentiation of head twitches observed with 5-HTP after oral administration (1 hr 30 min). In kind it is functional.
The subject of experiment [6] is Mus musculus. Nature of the experiment: Effective dose required for half maximal potentiation of head twitches observed with 5-HTP after subcutaneous administration (1 hr). The format is functional. The conditions noted are these: sc.

Sequence of D(2) dopamine receptor (P61168 whole entry): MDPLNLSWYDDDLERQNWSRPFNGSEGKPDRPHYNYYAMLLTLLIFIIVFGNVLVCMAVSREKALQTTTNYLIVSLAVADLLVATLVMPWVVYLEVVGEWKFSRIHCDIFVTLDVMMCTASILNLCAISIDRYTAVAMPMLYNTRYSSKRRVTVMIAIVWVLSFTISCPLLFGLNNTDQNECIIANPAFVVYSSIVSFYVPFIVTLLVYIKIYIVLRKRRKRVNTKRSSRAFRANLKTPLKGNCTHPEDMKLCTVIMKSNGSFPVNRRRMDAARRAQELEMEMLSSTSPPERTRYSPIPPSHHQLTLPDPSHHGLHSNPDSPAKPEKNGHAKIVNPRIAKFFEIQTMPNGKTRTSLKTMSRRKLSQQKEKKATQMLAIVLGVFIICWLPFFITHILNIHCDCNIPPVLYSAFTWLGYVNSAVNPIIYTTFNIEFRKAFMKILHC

In the case of `CN1c2cccc3cccc(c23)N(CCN2CCC(Cc3c[nH]c4ccc(F)cc34)CC2)S1(=O)=O`, the IC50 in experiment [1] is over 100 nM; in experiment [2] it was over 100 nM; in experiment [3], 3.7 nM; in experiment [4], over 100 nM. Further, the ED50 in experiment [5] is over 20 mg/kg.

For the molecule `O=C1CN(CCN2CCC(Cc3c[nH]c4ccc(F)cc34)CC2)S(=O)(=O)c2ccccc21`, the IC50 in experiment [1], in experiment [2] and in experiment [4] was over 100 nM throughout. The ED50 in experiment [5] is over 20 mg/kg.

Consider `CN(CCN1CCC(Cc2c[nH]c3ccc(F)cc23)CC1)S(=O)(=O)c1ccccc1`, for which the IC50 in experiment [1] was over 100 nM; in experiment [2] it was over 100 nM; in experiment [3], 30 nM; in experiment [4], over 100 nM.

Take `O=C1Nc2cccc3cccc(c23)N1CCN1CCC(Cc2c[nH]c3ccc(F)cc23)CC1`: the IC50 in experiment [1] was over 100 nM; in experiment [2], over 100 nM; in experiment [3], 1.5 nM; in experiment [4] it was over 100 nM. For the same molecule, the ED50 came out at 4 mg/kg in experiment [6] and 2 mg/kg in experiment [5].

Turning to `Cn1c(=O)c2ccccc2n(CCN2CCC(Cc3c[nH]c4ccc(F)cc34)CC2)c1=O`, the IC50 is over 100 nM in experiment [1], over 100 nM in experiment [2], 5.9 nM in experiment [3] and over 100 nM in experiment [4]. Moreover, the ED50 in experiment [5] was 20 mg/kg.

As for `O=c1[nH]c2ccccc2c(=O)n1CCN1CCC(Cc2c[nH]c3ccc(F)cc23)CC1`, the IC50 in experiment [1] was over 100 nM; in experiment [2], over 100 nM; in experiment [3] it was 0.5 nM; in experiment [4], over 100 nM. For the same molecule, the ED50 in experiment [5] amounted to 20 mg/kg.

`C[Si]1(C)CN(CCN2CCC(Cc3c[nH]c4ccc(F)cc34)CC2)C(=O)c2ccccc21`: the IC50 is over 100 nM in experiment [1], over 100 nM in experiment [2], 2.6 nM in experiment [3] and over 100 nM in experiment [4]. Further, in experiment [5], the 50% effective dose (ED50) is over 20 mg/kg.

As for `O=C1CSc2ccccc2N1CCN1CCC(Cc2c[nH]c3ccc(F)cc23)CC1`, the IC50 is over 100 nM in experiment [1], over 100 nM in experiment [2], 1.1 nM in experiment [3] and over 100 nM in experiment [4]. In addition, the 50% effective dose (ED50) in experiment [5] was over 20 mg/kg.

In the case of `CC1(C)CN(CCN2CCC(Cc3c[nH]c4ccc(F)cc34)CC2)C(=O)c2ccccc21`, the IC50 is over 100 nM in experiment [1], over 100 nM in experiment [2], 3.8 nM in experiment [3] and over 100 nM in experiment [4]. In addition, the ED50 in experiment [5] turned out to be 20 mg/kg.

Take `O=C1Cc2ccccc2N1CCN1CCC(Cc2c[nH]c3ccc(F)cc23)CC1`: the IC50 is over 100 nM in experiment [1], over 100 nM in experiment [2], 3.1 nM in experiment [3] and over 100 nM in experiment [4].

Turning to `O=C1Nc2ccccc2S(=O)(=O)N1CCN1CCC(Cc2c[nH]c3ccc(F)cc23)CC1`, the IC50 in experiment [1] is over 100 nM; in experiment [2], over 100 nM; in experiment [3], 2.1 nM; in experiment [4], over 100 nM. In experiment [5], the ED50 was over 20 mg/kg.

Consider `COC1=Nc2cccc3cccc(c23)N1CCN1CCC(Cc2c[nH]c3ccc(F)cc23)CC1`, for which the IC50 in experiment [1] is over 100 nM; in experiment [2], over 100 nM; in experiment [3], 22.6 nM; in experiment [4], over 100 nM.

As for `C[Si]1(C)CN(CCN2CCC(Cc3c[nH]c4ccc(F)cc34)CC2)S(=O)(=O)c2ccccc21`, the IC50 in experiment [1], in experiment [2] and in experiment [4] was over 100 nM each time.

`O=S1(=O)N(CCN2CCC(Cc3c[nH]c4ccc(F)cc34)CC2)c2cccc3c2N1CCC3` [RP-68303]: the ED50 in experiment [6] was 5.1 mg/kg. In experiment [3], this molecule came in with an IC50 of 1.2 nM.

For the molecule `O=S1(=O)c2ccccc2CN1CCN1CCC(Cc2c[nH]c3ccc(F)cc23)CC1`, the IC50 in experiment [1] is over 100 nM; in experiment [2] it was over 100 nM; in experiment [3], 1 nM; in experiment [4], over 100 nM. The values for the ED50 in experiment [6] and in experiment [5] were 4.5 mg/kg and 7.2 mg/kg, respectively.

In the case of `O=C1c2cccc3cccc(c23)C(=O)N1CCN1CCC(Cc2c[nH]c3ccc(F)cc23)CC1`, the concentration for half-maximal inhibition (IC50) in experiment [1], in experiment [2] and in experiment [4] was over 100 nM each time. The median effective dose (ED50) in experiment [6] was found to be 6.1 mg/kg; in experiment [5], 2.3 mg/kg.

With `O=C1N(CCN2CCC(Cc3c[nH]c4ccc(F)cc34)CC2)c2ccccc2C12CC2`, the IC50 was over 100 nM in experiment [1], over 100 nM in experiment [2], 4 nM in experiment [3] and over 100 nM in experiment [4]. Moreover, the ED50 in experiment [5] is over 20 mg/kg.

With `CNCCC(Oc1ccc(C(F)(F)F)cc1)c1ccccc1` (stereo not drawn) [FLUOXETINE], the ED50 in experiment [6] worked out at 6.3 mg/kg.

In the case of `O=S1(=O)Nc2cccc3cccc(c23)N1CCN1CCC(Cc2c[nH]c3ccc(F)cc23)CC1`, the half-maximal inhibitory concentration (IC50) is over 100 nM in experiment [1], over 100 nM in experiment [2], 12 nM in experiment [3] and over 100 nM in experiment [4].

With `O=S(=O)(NCCN1CCC(Cc2c[nH]c3ccc(F)cc23)CC1)c1ccccc1`, the IC50 is over 100 nM in experiment [1], over 100 nM in experiment [2], 6 nM in experiment [3] and over 100 nM in experiment [4]. In experiment [5], the ED50 was over 20 mg/kg.

A word on the IC50: it is the point on the concentration scale where inhibition reaches its midpoint. Low readings indicate greater potency in that assay, high ones weaker potency in that assay. One may read the ED50 as the midpoint of the dose-response relation.

These data come from ChEMBL document CHEMBL1127103, “New indole derivatives as potent and selective serotonin uptake inhibitors” (Bioorg Med Chem Lett, 1993).
